Read-outs that look alike come from different tables or passages of the source.

For experiment [1], the system named is Beet Armyworm (Spodoptera exigua, LAPHEG). The experiment is described as follows: Bioassay on Beet Armyworm (BAW), 128-well diet tray assay. Format: in vivo. Summed up: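 In a 128-well format, eight wells per compound received a surface dose of 50 μg/cm^2 on artificial diet. After drying, each well got one to five second instar larvae, held at 25° C. with 14:10 photoperiod. Mortality percentages after five to seven days were averaged.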

For experiment [2], the system named is Cabbage Looper (Trichoplusia ni, TRIPNI). Description: Bioassay on Cabbage Looper (CL), 128-well diet tray assay. Format: in vivo. Conditions: Trichoplusia ni. Summed up: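 Using eight wells per molecule, artificial diet was dosed at 50 μg/cm^2 with compound in 90:10 acetone-water and dried before one to five second-instar larvae were added per well. Covered vented trays were kept at 25° C. with 14:10 light-dark for five to seven days, then per-well percent mortality was recorded and averaged.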

The mark [3] stands for this setting: Species BAW (Beet Armyworm), read-out: BAW (Biological Results, rating).
Setting [4] is: Species CL (Cabbage Looper), read-out: CL (Biological Results, rating).
Where [5] appears, read: Beet Armyworm, 128-well diet tray assay, read-out: BAW rating.
[6] abbreviates: Cabbage Looper, 128-well diet tray assay, read-out: CL rating.

Take `O=C(Nc1ncco1)c1cc(NC(=O)[C@H]2[C@H](c3cc(Cl)cc(Cl)c3)C2(Cl)Cl)ccc1Cl` (relative stereo) [F145, trans-2-Chloro-5-(2,2-dichloro-3-(3,5-dichlorophenyl)cyclopropane-1-carboxamido)-N-(oxazol-2-yl)benzamide]: the pest or weed control at 50 µg/cm2 in experiment [1] (setting [3]) and in experiment [2] (setting [4]) was 50 to 100% throughout.
With `CS(=O)(=O)c1ccc(NC(=O)[C@H]2[C@H](c3cc(Cl)cc(Cl)c3)C2(Cl)Cl)cc1C(=O)Nc1ccc(F)cc1` (relative stereo) [F157, trans-5-(2,2-dichloro-3-(3,5-dichlorophenyl)cyclopropane-1-carboxamido)-N-(4-fluorophenyl)-2-(methylsulfonyl)benzamide], the pest or weed control at 50 µg/cm2 in experiment [1] (setting [3]) and in experiment [2] (setting [4]) was 50 to 100% each time.
Take `O=C(Nc1ccc(F)cc1)c1cc(NC(=O)[C@H]2[C@H](c3ccccc3)C2(Cl)Cl)ccc1Cl` (relative stereo) [F109, trans-2-Chloro-5-(2,2-dichloro-3-phenylcyclopropane-1-carboxamido)-N-(4-fluorophenyl)benzamide]: the pest or weed control at 50 µg/cm2 in experiment [1] (setting [3]) and in experiment [2] (setting [4]) was 50 to 100% throughout.
Take `O=C(Nc1ccc(NC(=O)c2cc(NC(=O)[C@H]3[C@H](c4cc(Cl)cc(Cl)c4)C3(Cl)Cl)ccc2Cl)cc1)c1ccccc1` (relative stereo) [PF104, trans-N-(4-Benzamidophenyl)-2-chloro-5-(2,2-dichloro-3-(3,5-dichlorophenyl)cyclopropane-1-carboxamido)benzamide]: the pest or weed control at 50 µg/cm2 in experiment [1] (setting [5]) and in experiment [2] (setting [6]) was 50 to 100% throughout.
With `CC(=O)N(C)c1ccc(NC(=O)c2cc(NC(=O)[C@H]3[C@H](c4cc(Cl)cc(Cl)c4)C3(Cl)Cl)ccc2Cl)cc1` (relative stereo) [PF14, trans-2-Chloro-5-(2,2-dichloro-3-(3,5-dichlorophenyl)cyclopropane-1-carboxamido)-N-(4-(N-methylacetamido)phenyl)benzamide], the pest or weed control at 50 µg/cm2 in experiment [1] (setting [5]) and in experiment [2] (setting [6]) was 50 to 100% in each case.
In the case of `Nc1c(F)ccc(NC(=O)c2cc(NC(=O)C3C(c4cc(F)cc(C(F)(F)F)c4)C3(Cl)Cl)ccc2Cl)c1F` (stereo not drawn) [F623, N-(3-Amino-2,4-difluorophenyl)-2-chloro-5-(2,2-dichloro-3-trans-(3-fluoro-5-(trifluoromethyl)phenyl)cyclopropane-1-carboxamido)benzamide], the pest or weed control at 50 µg/cm2 in experiment [1] (setting [5]) and in experiment [2] (setting [6]) was 50 to 100% in each case.
For `O=C(Nc1ccc(F)cc1)c1cc(NC(=O)C2C(c3cc(Cl)cc(Cl)c3)C2(Cl)Br)ccc1Cl` (stereo not drawn) [PF33, 5-(trans)-2-Bromo-2-chloro-3-(3,5-dichlorophenyl)cyclopropane-1-carboxamido)-2-chloro-N-(4-fluorophenyl)benzamide], the pest or weed control at 50 µg/cm2 in experiment [1] (setting [5]) and in experiment [2] (setting [6]) was 50 to 100% each time.
With `CC(C)(C)OC(=O)N(C(=O)OC(C)(C)C)c1cc(NC(=O)c2cc(NC(=O)[C@H]3[C@H](c4cc(Cl)cc(Cl)c4)C3(Cl)Cl)ccc2Cl)c(F)cc1F` [F519, tert-Butyl-N-((tert-butoxy)carbonyl)-N-(5-(2-chloro-5-((1R,3R)-2,2-dichloro-3-(3,5-dichlorophenyl)cyclopropane-1-carboxamido)benzamido)-2,4-difluorophenyl)carbamate], the pest or weed control at 50 µg/cm2 in experiment [1] (setting [5]) and in experiment [2] (setting [6]) was 50 to 100% in each case.
As to `Nc1ccc([C@H]2[C@H](C(=O)Nc3ccc(Cl)c(C(=O)Nc4ccc(F)cc4)c3)C2(Cl)Cl)cc1` (relative stereo) [F425, 5-(trans-3-(4-aminophenyl)-2,2-dichlorocyclopropane-1-carboxamido)-2-chloro-N-(4-fluorophenyl)benzamide], the pest or weed control at 50 µg/cm2 in experiment [1] (setting [5]) and in experiment [2] (setting [6]) was 50 to 100% in each case.
With `CC(=O)Nc1ccc(NC(=O)c2cc(NC(=O)[C@H]3[C@H](c4ccc(Cl)c(Cl)c4)C3(Cl)Cl)ccc2Cl)c(F)c1` (relative stereo) [PF41, trans-N-(4-Acetamido-2-fluorophenyl)-2-chloro-5-(2,2-dichloro-3-(3,4-dichlorophenyl)cyclopropane-1-carboxamido)benzamide], the pest or weed control at 50 µg/cm2 in experiment [1] (setting [5]) and in experiment [2] (setting [6]) was 50 to 100% in each case.
In the case of `O=C(Nc1ncncc1F)c1cc(NC(=O)[C@H]2[C@H](c3cc(Cl)cc(Cl)c3)C2(Cl)Cl)ccc1Cl` (relative stereo) [F318, trans-2-Chloro-5-(2,2-dichloro-3-(3,5-dichlorophenyl)cyclopropane-1-carboxamido)-N-(5-fluoropyrimidin-4-yl)benzamide], the pest or weed control at 50 µg/cm2 in experiment [1] (setting [3]) and in experiment [2] (setting [4]) was 50 to 100% throughout.
Regarding `CS(=O)(=O)c1ccc(NC(=O)c2cc(NC(=O)[C@H]3[C@H](c4cc(Cl)cc(Cl)c4)C3(Cl)Cl)ccc2Cl)cc1` (relative stereo) [F143, trans-2-Chloro-5-(2,2-dichloro-3-(3,5-dichlorophenyl)cyclopropane-1-carboxamido)-N-(4-(methylsulfonyl)phenyl)benzamide], the pest or weed control at 50 µg/cm2 in experiment [1] (setting [3]) and in experiment [2] (setting [4]) was 50 to 100% throughout.
Consider `Cc1cc(NC(=O)OC(C)(C)C)ccc1NC(=O)c1cc(NC(=O)[C@H]2[C@H](c3cc(Cl)cc(Br)c3)C2(Cl)Cl)ccc1Cl` (relative stereo) [F335, tert-Butyl (4-(5-(trans-3-(3-bromo-5-chlorophenyl)-2,2-dichlorocyclopropane-1-carboxamido)-2-chlorobenzamido)-3-methylphenyl)carbamate], for which the pest or weed control at 50 µg/cm2 in experiment [1] (setting [3]) and in experiment [2] (setting [4]) was 50 to 100% in each case.
Take `Nc1c(F)ccc(NC(=O)c2cc(NC(=O)[C@H]3[C@H](c4ccc(Cl)c(Br)c4)C3(Cl)Cl)ccc2Cl)c1F` (relative stereo) [F338, N-(3-Amino-2,4-difluorophenyl)-5-(trans-3-(3-bromo-4-chlorophenyl)-2,2-dichlorocyclopropane-1-carboxamido)-2-chlorobenzamide]: the pest or weed control at 50 µg/cm2 in experiment [1] (setting [3]) and in experiment [2] (setting [4]) was 50 to 100% in each case.
Turning to `N#Cc1ccc(NC(=O)c2cc(NC(=O)[C@H]3[C@H](c4ccc(Cl)c(Cl)c4)C3(Cl)Cl)ccc2Cl)c(F)c1` (relative stereo) [F103, trans-2-chloro-N-(4-cyano-2-fluorophenyl)-5-(2,2-dichloro-3-(3,4-dichlorophenyl)cyclopropane-1-carboxamido)benzamide], the pest or weed control at 50 µg/cm2 in experiment [1] (setting [3]) and in experiment [2] (setting [4]) was 50 to 100% each time.
With `N#CSc1ccc(NC(=O)c2cc(NC(=O)[C@H]3[C@H](c4cc(Cl)cc(Cl)c4)C3(Cl)Cl)ccc2Cl)cc1` (relative stereo) [PF45, trans-2-Chloro-5-(2,2-dichloro-3-(3,5-dichlorophenyl)cyclopropane-1-carboxamido)-N-(4-thiocyanatophenyl)benzamide], the pest or weed control at 50 µg/cm2 in experiment [1] (setting [5]) and in experiment [2] (setting [6]) was 50 to 100% in each case.
For the compound `N#CC1(C(=O)Nc2ccc(NC(=O)c3cc(NC(=O)[C@H]4[C@H](c5cc(Cl)cc(Cl)c5)C4(Cl)Cl)ccc3Cl)cc2)CC1` (relative stereo) [PF109, trans-2-Chloro-N-(4-(1-cyanocyclopropane-1-carboxamido)phenyl)-5-(2,2-dichloro-3-(3,5-dichlorophenyl)cyclopropane-1-carboxamido)benzamide], the pest or weed control at 50 µg/cm2 in experiment [1] (setting [5]) and in experiment [2] (setting [6]) was 50 to 100% in each case.
On to `C=CCN(C(=O)c1cc(NC(=O)[C@H]2[C@H](c3cc(Cl)cc(Cl)c3)C2(Cl)Cl)ccc1Cl)c1ccc(F)cc1` (relative stereo) [F102, trans-N-Allyl-2-chloro-5-(2,2-dichloro-3-(3,5-dichlorophenyl)cyclopropane-1-carboxamido)-N-(4-fluorophenyl)benzamide], for which the pest or weed control at 50 µg/cm2 in experiment [1] (setting [3]) and in experiment [2] (setting [4]) was 50 to 100% in each case.
Turning to `Nc1c(F)ccc(NC(=O)c2cc(NC(=O)C3C(c4cc(Cl)c(Cl)c(Br)c4)C3(Cl)Cl)ccc2Cl)c1F` (stereo not drawn) [F621, N-(3-Amino-2,4-difluorophenyl)-5-(3-trans-(3-bromo-4,5-dichlorophenyl)-2,2-dichlorocyclopropane-1-carboxamido)-2-chlorobenzamide], the pest or weed control at 50 µg/cm2 in experiment [1] (setting [5]) and in experiment [2] (setting [6]) was 50 to 100% throughout.
As to `CN(C(=O)C(F)(F)F)c1ccc(NC(=O)c2cc(NC(=O)[C@H]3[C@H](c4cc(Cl)cc(Cl)c4)C3(Cl)Cl)ccc2Cl)cc1` (relative stereo) [PF29, trans-2-Chloro-5-(2,2-dichloro-3-(3,5-dichlorophenyl)cyclopropane-1-carboxamido)-N-(4-(2,2,2-trifluoro-N-methylacetamido)phenyl)benzamide], the pest or weed control at 50 µg/cm2 in experiment [1] (setting [5]) and in experiment [2] (setting [6]) was 50 to 100% throughout.
Take `CN(C(=O)OC(C)(C)C)c1cc(NC(=O)c2cc(NC(=O)[C@H]3[C@H](c4cc(Cl)cc(Cl)c4)C3(Cl)Cl)ccc2Cl)ccc1F` (relative stereo) [F471, trans-tert-Butyl (5-(2-chloro-5-(2,2-dichloro-3-(3,5-dichlorophenyl)cyclopropane-1-carboxamido)benzamido)-2-fluorophenyl)(methyl)carbamate]: the pest or weed control at 50 µg/cm2 in experiment [1] (setting [5]) and in experiment [2] (setting [6]) was 50 to 100% in each case.
As to `CSc1ccc(NC(=O)[C@H]2[C@H](c3cc(Cl)cc(Cl)c3)C2(Cl)Cl)cc1C(=O)Nc1ccc(F)cc1` (relative stereo) [F115, trans-5-(2,2-Dichloro-3-(3,5-dichlorophenyl)cyclopropane-1-carboxamido)-N-(4-fluorophenyl)-2-(methylthio)benzamide], the pest or weed control at 50 µg/cm2 in experiment [1] (setting [3]) and in experiment [2] (setting [4]) was 50 to 100% in each case.
